Results: paper PMC7616177, “From structure to clinic: Design of a muscarinic M1 receptor agonist with the potential to treat Alzheimer’s disease” (Cell, 2021)

Experiments:
M4-receptor = target: T1, M4-receptor (Homo sapiens, UniProt P08173); test: [3H]-NMS equilibrium radioligand binding, M4
T1 sequence (P08173 1-479): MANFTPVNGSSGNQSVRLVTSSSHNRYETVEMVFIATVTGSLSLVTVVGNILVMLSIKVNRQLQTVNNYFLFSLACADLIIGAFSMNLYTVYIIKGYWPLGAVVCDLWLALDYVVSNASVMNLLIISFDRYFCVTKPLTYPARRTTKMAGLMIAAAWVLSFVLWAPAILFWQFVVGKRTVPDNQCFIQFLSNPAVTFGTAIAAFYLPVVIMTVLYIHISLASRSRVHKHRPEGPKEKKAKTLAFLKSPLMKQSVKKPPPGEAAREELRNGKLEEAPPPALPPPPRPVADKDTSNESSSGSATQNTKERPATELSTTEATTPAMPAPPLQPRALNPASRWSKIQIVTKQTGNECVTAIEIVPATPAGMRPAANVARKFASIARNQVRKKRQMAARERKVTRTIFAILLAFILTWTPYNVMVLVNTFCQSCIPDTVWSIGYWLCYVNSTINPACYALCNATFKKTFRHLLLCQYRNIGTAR
Method: Non-specific binding (NSB) was determined in the presence of 1 μM atropine). Reactions were terminated by rapid filtration onto GF/B filter paper (Whatman, Maidstone, UK) and three washes with 3 mL ice-cold 0.9% NaCl using a Brandel harvester (M-24TI; Brandel, Fort Lauderdale, FL). Membrane bound radioactivity was determined by liquid scintillation (Ultima Gold; PerkinElmer) counting.
Data was analyzed using PRISM (GraphPad). For saturation binding, non-specific and total binding data were analyzed to a one site binding model. DPM was converted to fmol/mg to compare across constructs. […] […] The Cheng Prusoff equation was used to estimate pKi ([Cheng and Prusoff, 1973]).

[1] = target: T2, M1-receptor (Gq/11 protein-coupling) in cortical membranes (Mus musculus, UniProt P12657); test: [35S]-GTPγS binding / Gq/11 protein-coupling in mouse cortical membranes; type: biochemical
T2 construct: Wild-type or M1-KO mice ([Bradley et al., 2017]) (8-12 weeks) were humanely killed and cortical tissue was dissected on ice; from tissue; host or cells: mouse cortex membranes
T2 sequence (P12657 1-460): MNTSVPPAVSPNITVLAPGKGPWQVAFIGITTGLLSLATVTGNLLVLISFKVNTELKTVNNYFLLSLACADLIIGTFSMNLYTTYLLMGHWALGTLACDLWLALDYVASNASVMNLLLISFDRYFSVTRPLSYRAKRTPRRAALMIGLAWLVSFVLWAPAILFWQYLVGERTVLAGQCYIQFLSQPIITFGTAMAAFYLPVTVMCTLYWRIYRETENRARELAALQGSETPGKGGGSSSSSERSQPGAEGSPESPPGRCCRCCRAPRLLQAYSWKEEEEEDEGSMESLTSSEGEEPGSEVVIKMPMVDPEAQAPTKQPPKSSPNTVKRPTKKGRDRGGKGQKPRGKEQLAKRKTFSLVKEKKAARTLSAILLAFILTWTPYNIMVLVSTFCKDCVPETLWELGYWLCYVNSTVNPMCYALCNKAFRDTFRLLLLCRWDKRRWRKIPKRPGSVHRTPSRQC
Method: Wild-type or M1-KO mice ([Bradley et al., 2017]) (8-12 weeks) were humanely killed and cortical tissue was dissected on ice. Tissue was suspended in ice-cold buffer A (containing 0.9% (w/v) NaCl, 10 mM HEPES, 0.2% (w/v) EDTA, pH 7.4) and homogenized (4 ×5s bursts) using a Polytron homogenizer. The suspension was centrifuged at 200 xg for 5 min at 4°C using an Eppendorf 5810R bench-top centrifuge. Supernatants were collected and re-homogenized as above. The suspension was subsequently centrifuged for 20 min at 40,000 xg at 4°C using a Beckman Coulter Avanti JXN-26 centrifuge with a JA-25.25 rotor. Supernatant was discarded, and the pellet was re-suspended in 10 mL ice-cold buffer B (10 mM HEPES, 10 mM EDTA, pH 7.4). The pellet was homogenized, GTP (1 mM final) was added and the suspension was incubated at 37° C for 15 min. The suspension was subsequently centrifuged for 20 min at 40,000 xg at 4°C and the pellet was re-suspended in 15 mL ice-cold buffer C (10 mM HEPES, 0.1 mM EDTA, pH 7.4) and re-homogenized as before. Suspension was centrifuged again for 20 min at 40,000 xg at 4°C. The final pellet was re-suspended in buffer C and protein concentration was estimated using a Bradford assay and this resuspended homogenate further diluted in buffer C to produce a concentration of 2 mg/mL. This preparation is the membrane preparation used in the [^35S]-GTPγS binding assay described below.
[^35S]-GTPγS binding and immunoprecipitation of Gα subunits was performed as previously described ([Bradley et al., 2017]). Specifically, wild-type or M1-KO membranes were diluted in assay buffer (in mM: HEPES, 10; NaCI, 100; MgCl2, 10; pH 7.4) containing a final concentration of 1 μM GDP. Membranes (75 μg in a total assay volume of […]) were added to [^35S]-GTPγS (1 μM final concentration) and agonists (CCh or CNO) and incubated at 30°C for 5 min. Reactions were terminated by the addition of 1 mL ice-cold assay buffer and immediate transfer to an ice bath. […] Recovered beads were then mixed with 1 mL FloScint-IV scintillation cocktail and counted by liquid scintillation spectrometry.

Structure (SMILES): CCOC(=O)N1CCC[C@H](N2CCC(C(=O)NC3(C)CCC3)CC2)CC1 [HTL9936, ethyl (S)-4-(4-((1-methylcyclobutyl)carbamoyl)piperidin-1-yl)azepane-1-carboxylate]
- Ki (M4-receptor): 3.98 µM
- EC50 [1]: 2.5 µM
- Gq/11 protein-coupling Emax ([1]; cortical membranes, wild-type mice, n = 3): 76 % of the oxotremorine-M response
- Gq/11 protein-coupling in M1-receptor KO membranes ([1]; membranes from M1-receptor KO animals): absent
